Assay results as given in patent publication US9034905B2, “Synergistic microbicidal combinations” (Rohm and Haas Company, priority 2003, dated 2015).
Where two headings read alike, the source gives them in different places.

Tests used:
Assay type in all cases: cell-based
[1] = system: Aspergillus niger (A. niger—ATCC 16404); assay: Synergy test, microtiter plate high resolution MIC assay, mold; conditions: for SI (synergy index, Qa/QA+Qb/QB): <1 synergism, 1 additivity, >1 antagonism; for MIC: Aspergillus niger, read-out: MIC of the microbicide acting alone (QA or QB)
Experimental: (§1) When the sum of Qa/QA and Qb/QB is greater than one, antagonism is indicated. […] The lower the SI, the greater the synergy shown by that particular mixture. The minimum inhibitory concentration (MIC) of a microbicide is the lowest concentration tested under a specific set of conditions that prevents the growth of added microorganisms.
(§2) Synergy tests were conducted using standard microtiter plate assays with media designed for optimal growth of the test microorganism. Minimal salt medium supplemented with 0.2% glucose and 0.1% yeast extract (M9GY medium) was used for testing bacteria; Potato Dextrose Broth (PDB medium) was used for testing yeast and mold. In this method, a wide range of combinations of microbicides was tested by conducting high resolution MIC assays in the presence of various concentrations of MI. High resolution MICs were determined by adding varying amounts of microbicide to one column of a microtitre plate and doing subsequent ten-fold dilutions using an automated liquid handling system to obtain a series of endpoints ranging from 2 ppm to 10,000 ppm active ingredient. […] The bacteria were used at a concentration of about 5×10^6 bacteria per mL and the yeast and mold at 5×10^5 fungi per mL. These microorganisms are representative of natural contaminants in many consumer and industrial applications. […] (yeast and mold) or 30° C. (bacteria).
(§3) In each test, First Component (A) was MI and the Second Component (B) was the other commercial microbicide.

[2] = system: Candida albicans (C. albicans—ATCC 10231); assay: Synergy test, microtiter plate high resolution MIC assay, yeast; conditions: for SI (synergy index, Qa/QA+Qb/QB): <1 synergism, 1 additivity, >1 antagonism; for MIC: Candida albicans, read-out: MIC of the microbicide acting alone (QA or QB)
Experimental: as §1, §2, §3

[3] = system: Staphylococcus aureus (S. aureus—ATCC #6538); assay: Synergy test, microtiter plate high resolution MIC assay, Gram (+) bacteria; conditions: for SI (synergy index, Qa/QA+Qb/QB): <1 synergism, 1 additivity, >1 antagonism; for MIC: Staphylococcus aureus
Experimental: as §1, §2, §3

[4] = system: Pseudomonas aeruginosa (P. aeruginosa—ATCC #9027); assay: Synergy test, microtiter plate high resolution MIC assay, Gram (−) bacteria; conditions: for SI (synergy index, Qa/QA+Qb/QB): <1 synergism, 1 additivity, >1 antagonism; for MIC: Pseudomonas aeruginosa, read-out: MIC of the microbicide acting alone (QA or QB)
Experimental: as §1, §2, §3

[5] = ATCC6538, 72 h, read-out: MIC of the microbicide acting alone (QA or QB), S. aureus, 72 hours, M9GY medium, 30° C.
[6] = ATCC10231, C. albicans, 72 hours, PDB medium, 25° C.
[7] = ATCC6538, S. aureus, 24 hours, M9GY medium, 30° C., read-out: MIC of the microbicide acting alone (QA or QB)
[8] = ATCC16404, 168 h, A. niger, 1 week, PDB medium, 25° C.
[9] = ATCC6538, S. aureus, 72 hours, M9GY medium, 30° C., read-out: MIC of the microbicide acting alone (QA or QB)
[10] = ATCC9027, P. aeruginosa, 24 hours, M9GY medium, 30° C.
[11] = ATCC9027, P. aeruginosa, 48 hours, M9GY medium, 30° C.

Molecule: Cn1sccc1=O [2-methyl-3-isothiazolone]
- SI (synergy index, Qa/QA+Qb/QB) ([1]; A. niger, 1 week): 1.00
- SI (synergy index, Qa/QA+Qb/QB) ([1]; A. niger, 72 hours): 1.00
- SI (synergy index, Qa/QA+Qb/QB) ([1]; A. niger, 96 hours): 1.00
- MIC ([1]; ATCC16404, 72 h): 300 µg/mL
- MIC ([1]; ATCC16404, 96 h): 300 µg/mL
- MIC ([1]; ATCC16404, 168 h): 300 µg/mL
- SI (synergy index, Qa/QA+Qb/QB) ([2]; C. albicans, 48 hours): 1.00
- SI (synergy index, Qa/QA+Qb/QB) ([2]; C. albicans, 72 hours): 1.00
- MIC ([2]; ATCC10231, 48 h): 200 µg/mL
- MIC ([2]; ATCC10231, 72 h): 200 µg/mL
- SI (synergy index, Qa/QA+Qb/QB) ([3]; S. aureus, 24 hours): 1.00
- SI (synergy index, Qa/QA+Qb/QB) ([3]; S. aureus, 72 hours): 1.00
- MIC ([3]; ATCC6538, 24 h, read-out: MIC of the microbicide acting alone (QA or QB), S. aureus, 24 hours, M9GY medium, 30° C.): 40 µg/mL
- MIC [3, 5]: 60 µg/mL
- SI (synergy index, Qa/QA+Qb/QB) ([4]; P. aeruginosa, 24 hours): 1.00
- SI (synergy index, Qa/QA+Qb/QB) ([4]; P. aeruginosa, 48 hours): 1.00
- SI (synergy index, Qa/QA+Qb/QB) ([4]; P. aeruginosa, 72 hours): 1.00
- MIC ([4]; ATCC9027, 24 h): 15 µg/mL
- MIC ([4]; ATCC9027, 48 h): 20 µg/mL
- MIC ([4]; ATCC9027, 72 h): 20 µg/mL

Molecule: CC(C)(C)C(=O)C(Oc1ccc(Cl)cc1)n1ccnc1 (stereo not shown) [climbazole]
- SI (synergy index, Qa/QA+Qb/QB) ([2]; C. albicans, 72 hours): 1.00
- MIC [2, 6]: 300 µg/mL
- SI (synergy index, Qa/QA+Qb/QB) ([3]; S. aureus, 24 hours): 1.00
- MIC [3, 7]: 2000 µg/mL

Molecule: N#CCCC(Br)(C#N)CBr (stereo not shown) [1,2-dibromo-2,4-dicyanobutane]
- SI (synergy index, Qa/QA+Qb/QB) ([1]; A. niger, 1 week): 1.00
- MIC [1, 8]: 100 µg/mL
- SI (synergy index, Qa/QA+Qb/QB) ([2]; C. albicans, 72 hours): 1.00
- MIC [2, 6]: 500 µg/mL
- SI (synergy index, Qa/QA+Qb/QB) ([3]; S. aureus, 72 hours): 1.00
- MIC [3, 9]: 1000 µg/mL
- SI (synergy index, Qa/QA+Qb/QB) ([4]; P. aeruginosa, 24 hours): 1.00
- MIC [4, 10]: 800 µg/mL

Molecule: OCc1ccccc1 [benzyl alcohol]
- SI (synergy index, Qa/QA+Qb/QB) ([1]; A. niger, 72 hours): 1.00
- MIC ([1]; ATCC16404, A. niger, 72 hours, PDB medium, 25° C.): 8000 µg/mL
- SI (synergy index, Qa/QA+Qb/QB) ([2]; C. albicans, 48 hours): 1.00
- MIC ([2]; ATCC10231, C. albicans, 48 hours, PDB medium, 25° C.): 6000 µg/mL
- SI (synergy index, Qa/QA+Qb/QB) ([3]; S. aureus, 72 hours): 1.00
- MIC [3, 9]: 8000 µg/mL
- SI (synergy index, Qa/QA+Qb/QB) ([4]; P. aeruginosa, 24 hours): 1.00
- MIC [4, 10]: 6000 µg/mL

Molecule: O=C(O)CC(O)(CC(=O)O)C(=O)O [citric acid]
- MIC [1, 8]: 10000 µg/mL
- MIC [2, 6]: 10000 µg/mL
- MIC [3, 7]: 4000 µg/mL
- MIC [4, 11]: 6000 µg/mL

Molecule: C/C=C/C=C/C(=O)O [sorbic acid]
- SI (synergy index, Qa/QA+Qb/QB) ([1]; A. niger, 96 hours): 1.00
- MIC ([1]; ATCC16404, A. niger, 96 hours, PDB medium, 25° C.): 4000 µg/mL
- SI (synergy index, Qa/QA+Qb/QB) ([2]; C. albicans, 72 hours): 1.00
- MIC [2, 6]: 400 µg/mL
- SI (synergy index, Qa/QA+Qb/QB) ([3]; S. aureus, 72 hours): 1.00
- MIC [3, 9]: 10000 µg/mL
- SI (synergy index, Qa/QA+Qb/QB) ([4]; P. aeruginosa, 48 hours): 1.00
- MIC [4, 11]: 10000 µg/mL

Molecule: zinc pyrithione
- MIC of the microbicide acting alone (QA or QB) ([1]; A. niger, 1 week, PDB medium, 25° C.): 80 ppm
- SI (synergy index, Qa/QA+Qb/QB) ([1]; A. niger, 1 week): 1.00
- MIC of the microbicide acting alone (QA or QB) ([2]; C. albicans, 48 hours, PDB medium, 25° C.): 80 ppm
- SI (synergy index, Qa/QA+Qb/QB) ([2]; C. albicans, 48 hours): 1.00
- MIC of the microbicide acting alone (QA or QB) ([3]; S. aureus, 72 hours, M9GY medium, 30° C.): 20 ppm
- SI (synergy index, Qa/QA+Qb/QB) ([3]; S. aureus, 72 hours): 1.00
- MIC of the microbicide acting alone (QA or QB) ([4]; P. aeruginosa, 72 hours, M9GY medium, 30° C.): 200 ppm
- SI (synergy index, Qa/QA+Qb/QB) ([4]; P. aeruginosa, 72 hours): 1.00

Molecule: CC1(C)C(=O)N(CO)C(=O)N1CO [1,3-dimethylol-5,5-dimethylhydantoin]
- SI (synergy index, Qa/QA+Qb/QB) ([1]; A. niger, 1 week): 1.00
- MIC [1, 8]: 3000 µg/mL
- SI (synergy index, Qa/QA+Qb/QB) ([2]; C. albicans, 72 hours): 1.00
- MIC [2, 6]: 3000 µg/mL
- SI (synergy index, Qa/QA+Qb/QB) ([3]; S. aureus, 72 hours): 1.00
- MIC [3, 9]: 200 µg/mL
- SI (synergy index, Qa/QA+Qb/QB) ([4]; P. aeruginosa, 24 hours): 1.00
- MIC [4, 10]: 300 µg/mL

Molecule: O=C(O)c1ccccc1 [benzoic acid]
- SI (synergy index, Qa/QA+Qb/QB) ([1]; A. niger, 1 week): 1.00
- MIC ([1]; ATCC16404, 168 h): 10000 µg/mL
- SI (synergy index, Qa/QA+Qb/QB) ([2]; C. albicans, 48 hours): 1.00
- MIC ([2]; ATCC10231, 48 h): 5000 µg/mL
- SI (synergy index, Qa/QA+Qb/QB) ([3]; S. aureus, 72 hours): 1.00
- MIC [3, 5]: 6000 µg/mL
- SI (synergy index, Qa/QA+Qb/QB) ([4]; P. aeruginosa, 72 hours): 1.00
- MIC ([4]; ATCC9027, 72 h): 6000 µg/mL
